This note sets out measurements from patent US11739070B2, “C5A receptor modulators” (IDORSIA PHARMACEUTICALS LTD, priority 2018, dated 2023).

This assay addresses T1, C5AR1 (Homo sapiens, UniProt P21730).
T1 construct: host or cells: CHO-K1
T1 sequence (P21730 1-350): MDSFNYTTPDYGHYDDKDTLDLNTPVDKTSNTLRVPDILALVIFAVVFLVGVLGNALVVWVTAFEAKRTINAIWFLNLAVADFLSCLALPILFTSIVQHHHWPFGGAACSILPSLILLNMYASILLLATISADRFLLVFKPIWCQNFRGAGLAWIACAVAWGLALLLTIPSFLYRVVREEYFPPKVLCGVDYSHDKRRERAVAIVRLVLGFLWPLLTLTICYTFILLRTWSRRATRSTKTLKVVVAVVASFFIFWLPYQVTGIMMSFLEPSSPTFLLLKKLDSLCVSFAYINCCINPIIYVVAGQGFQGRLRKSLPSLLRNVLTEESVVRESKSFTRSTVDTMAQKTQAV
As to the kind of experiment: hC5a DISCO IC50 assay (PathHunter beta-arrestin, antagonist mode). In kind it is cell-based. The settings on record: CHO-K1 C5AR1 beta-arrestin cell line; antagonist vs 1-10 nM C5a agonist; geometric mean values; read-out: C5aR IC50. The essentials:
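Antagonist added first, then 1-10 nM C5a agonist; cells incubated 1.5 h at 37 °C. Beta-arrestin signal developed with PathHunter detection reagent, 45 min at RT. IC50 in nmol/l from serial antagonist dilutions, reported as geometric mean of several measurements.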

`COc1cccc2c1n(Cc1ccccc1C(F)(F)F)c(=O)n2[C@@H]1CCN(C(=O)c2ccccc2)C1` [Example 27, 1-((R)-1-Benzoyl-pyrrolidin-3-yl)-4-methoxy-3-(2-trifluoromethyl-benzyl)-1,3-dihydro-benzoimidazol-2-one]: the IC50 was 3340 nM.

For the compound `COc1cccc2c1n(Cc1ccccc1C(F)(F)F)c(=O)n2C1CN(C(=O)OC(C)(C)C)C1` [Example 213, 3-[4-Methoxy-2-oxo-3-(2-trifluoromethyl-benzyl)-2,3-dihydro-benzoimidazol-1-yl]-azetidine-1-carboxylic acid tert-butyl ester], the IC50 worked out at 469 nM.

Regarding `COc1cccc2c1n(Cc1cncnc1C(C)C)c(=O)n2[C@@H]1CCN(c2c(C)cccc2F)C1` [Example 186, 1-[(R)-1-(2-Fluoro-6-methyl-phenyl)-pyrrolidin-3-yl]-3-(4-isopropyl-pyrimidin-5-ylmethyl)-4-methoxy-1,3-dihydro-benzoimidazol-2-one], the IC50 was 14 nM.

With `Cc1cccc(F)c1N1CC[C@@H](n2c(=O)n(Cc3ccccc3C(F)(F)F)c3c(N4CCOCC4)nccc32)C1` [Example 129, 1-[(R)-1-(2-Fluoro-6-methyl-phenyl)-pyrrolidin-3-yl]-4-morpholin-4-yl-3-(2-trifluoromethyl-benzyl)-1,3-dihydro-imidazo[4,5-c]pyridin-2-one], the IC50 came to 53 nM.

With `COc1cccc2c1n(Cc1ccccc1OC1CCC1)c(=O)n2C1CCN(c2c(C)cccc2F)CC1` [Example 226, 3-(2-Cyclobutoxy-benzyl)-1-[1-(2-fluoro-6-methyl-phenyl)-piperidin-4-yl]-4-methoxy-1,3-dihydro-benzoimidazol-2-one], the IC50 was determined as 36 nM.

Regarding `COc1ncncc1Cn1c(=O)n([C@@H]2CCN(c3c(C)cccc3F)C2)c2cccc(OC)c21` [Example 175, 1-[(R)-1-(2-Fluoro-6-methyl-phenyl)-pyrrolidin-3-yl]-4-methoxy-3-(4-methoxy-pyrimidin-5-ylmethyl)-1,3-dihydro-benzoimidazol-2-one], the IC50 amounted to 221 nM.

For `COc1cccc2c1n(Cc1ccccc1C(F)(F)F)c(=O)n2C1C2CC1CN(c1c(C)cccc1F)C2` (stereo not drawn) [Example 197, 1-[3-(2-Fluoro-6-methyl-phenyl)-3-aza-bicyclo[3.1.1]hept-6-yl]-4-methoxy-3-(2-trifluoromethyl-benzyl)-1,3-dihydro-benzoimidazol-2-one], the IC50 is 74 nM.

Regarding `COc1cccc2c1n(Cc1nccnc1C(F)(F)F)c(=O)n2[C@@H]1CCN(c2c(F)cccc2C#N)C1` [Example 111, 3-Fluoro-2-{(R)-3-[4-methoxy-2-oxo-3-(3-trifluoromethyl-pyrazin-2-ylmethyl)-2,3-dihydro-benzoimidazol-1-yl]-pyrrolidin-1-yl}-benzonitrile], the IC50 is 264 nM.

With `COc1cccc2c1n(Cc1ccccc1C(F)(F)F)c(=O)n2[C@@H]1CCN(c2c(F)cccc2C(C)OC)C1` (stereo partly drawn) [Example 148, 1-{(R)-1-[2-Fluoro-6-(1-methoxy-ethyl)-phenyl]-pyrrolidin-3-yl}-4-methoxy-3-(2-trifluoromethyl-benzyl)-1,3-dihydro-benzoimidazol-2-one], the IC50 is 28 nM.

On to `Cc1cccc(F)c1N1CCC(n2c(=O)n(Cc3ccccc3C(F)(F)F)c3c(C)cccc32)CC1` [Example 245, 1-[1-(2-Fluoro-6-methyl-phenyl)-piperidin-4-yl]-4-methyl-3-(2-trifluoromethyl-benzyl)-1,3-dihydro-benzoimidazol-2-one], for which the IC50 stood at 111 nM.

Regarding `COc1cccc2c1n(Cc1ccccc1C(F)(F)F)c(=O)n2[C@@H]1CCN(c2c(F)cccc2CN2CCCC2)C1` [Example 116, 1-[(R)-1-(2-Fluoro-6-pyrrolidin-1-ylmethyl-phenyl)-pyrrolidin-3-yl]-4-methoxy-3-(2-trifluoromethyl-benzyl)-1,3-dihydro-benzoimidazol-2-one], the IC50 is 165 nM.

`COc1cccc2c1n(Cc1ccccc1C(F)(F)F)c(=O)n2C1CCN(c2ccccc2O)CC1` [Example 230, 1-[1-(2-Hydroxy-phenyl)-piperidin-4-yl]-4-methoxy-3-(2-trifluoromethyl-benzyl)-1,3-dihydro-benzoimidazol-2-one]: the IC50 was determined as 129 nM.

With `COc1cc(Cl)nnc1Cn1c(=O)n([C@@H]2CCN(c3c(C)cccc3F)C2)c2cccc(OC)c21` [Example 92, 3-(6-Chloro-4-methoxy-pyridazin-3-ylmethyl)-1-[(R)-1-(2-fluoro-6-methyl-phenyl)-pyrrolidin-3-yl]-4-methoxy-1,3-dihydro-benzoimidazol-2-one], the IC50 came out at 2020 nM.

For `COc1cccc2c1n(Cc1ccccc1OC(F)(F)F)c(=O)n2[C@@H]1CCN(c2c(F)cccc2F)C1` [Example 23, 1-[(R)-1-(2,6-Difluoro-phenyl)-pyrrolidin-3-yl]-4-methoxy-3-(2-trifluoromethoxy-benzyl)-1,3-dihydro-benzoimidazol-2-one], the IC50 is 8 nM.

For the compound `COc1nccnc1Cn1c(=O)n(C2CCN(c3c(F)cccc3C#N)CC2)c2cccc(OC)c21` [Example 97, 3-Fluoro-2-{4-[4-methoxy-3-(3-methoxy-pyrazin-2-ylmethyl)-2-oxo-2,3-dihydro-benzoimidazol-1-yl]-piperidin-1-yl}-benzonitrile], the IC50 turned out to be 1350 nM.

For `COc1cccc2c1n(Cc1ccccc1OC1CC1)c(=O)n2[C@@H]1CCN(c2c(C)cccc2F)C1` [Example 208, 3-(2-Cyclopropoxy-benzyl)-1-[(R)-1-(2-fluoro-6-methyl-phenyl)-pyrrolidin-3-yl]-4-methoxy-1,3-dihydro-benzoimidazol-2-one], the IC50 worked out at 19 nM.

Turning to `COc1cccc2c1n(Cc1ccccc1C(F)(F)F)c(=O)n2C1CCN(c2ccccc2)CC1` [Example 4, 4-Methoxy-1-(1-phenyl-piperidin-4-yl)-3-(2-trifluoromethyl-benzyl)-1,3-dihydro-benzoimidazol-2-one], the IC50 was found to be 131 nM.

With `COc1nccc(C)c1N1CC[C@@H](n2c(=O)n(Cc3ccccc3C(F)(F)F)c3c(OC)nccc32)C1` [Example 47, 4-Methoxy-1-[(R)-1-(2-methoxy-4-methyl-pyridin-3-yl)-pyrrolidin-3-yl]-3-(2-trifluoromethyl-benzyl)-1,3-dihydro-imidazo[4,5-c]pyridin-2-one], the IC50 amounted to 95 nM.

Consider `COCCOc1ccccc1N1CC[C@@H](n2c(=O)n(Cc3ccccc3C(F)(F)F)c3c(OC)cccc32)C1` [Example 204, 4-Methoxy-1-{(R)-1-[2-(2-methoxy-ethoxy)-phenyl]-pyrrolidin-3-yl}-3-(2-trifluoromethyl-benzyl)-1,3-dihydro-benzoimidazol-2-one], for which the IC50 was 30 nM.

With `COc1cccnc1N1CCC(n2c(=O)n(Cc3ccccc3C(F)(F)F)c3c(OC)cccc32)CC1` [Example 233, 4-Methoxy-1-(3′-methoxy-3,4,5,6-tetrahydro-2H-[1,2′]bipyridinyl-4-yl)-3-(2-trifluoromethyl-benzyl)-1,3-dihydro-benzoimidazol-2-one], the IC50 was found to be 195 nM.

`COc1cccc2c1n(Cc1ccccc1OC(F)(F)F)c(=O)n2[C@@H]1CCN(C(=O)OC(C)(C)C)C1` [Example 20, (R)-3-[4-Methoxy-2-oxo-3-(2-trifluoromethoxy-benzyl)-2,3-dihydro-benzoimidazol-1-yl]-pyrrolidine-1-carboxylic acid tert-butyl ester]: the IC50 worked out at 36 nM.

In the case of `COc1cccc2c1n(Cc1cnccc1C(F)(F)F)c(=O)n2C1CCN(C(=O)OC(C)(C)C)CC1` [Example 53, 4-[4-Methoxy-2-oxo-3-(4-trifluoromethyl-pyridin-3-ylmethyl)-2,3-dihydro-benzoimidazol-1-yl]-piperidine-1-carboxylic acid tert-butyl ester], the IC50 was 1840 nM.

Consider `COc1cccc2c1n(Cc1ccccc1C(F)(F)F)c(=O)n2[C@@H]1CCN(c2c(F)cccc2Br)C1` [Example 156, 1-[(R)-1-(2-Bromo-6-fluoro-phenyl)-pyrrolidin-3-yl]-4-methoxy-3-(2-trifluoromethyl-benzyl)-1,3-dihydro-benzoimidazol-2-one], for which the IC50 worked out at 21 nM.

`COc1cccc2c1n(Cc1nccnc1C(F)(F)F)c(=O)n2C1CCN(c2c(C)cccc2F)CC1` [Example 168, 1-[1-(2-Fluoro-6-methyl-phenyl)-piperidin-4-yl]-4-methoxy-3-(3-trifluoromethyl-pyrazin-2-ylmethyl)-1,3-dihydro-benzoimidazol-2-one]: the IC50 amounted to 10 nM.

`COc1cccc(C)c1N1CC[C@@H](n2c(=O)n(Cc3ccccc3C(F)(F)F)c3c(OC)nccc32)C1` [Example 51, 4-Methoxy-1-[(R)-1-(2-methoxy-6-methyl-phenyl)-pyrrolidin-3-yl]-3-(2-trifluoromethyl-benzyl)-1,3-dihydro-imidazo[4,5-c]pyridin-2-one]: the 50% inhibitory concentration (IC50) turned out to be 62 nM.

As to `COc1cccc2c1n(Cc1ncccc1OC(C)C)c(=O)n2[C@@H]1CCN(c2c(C)cccc2F)C1` [Example 182, 1-[(R)-1-(2-Fluoro-6-methyl-phenyl)-pyrrolidin-3-yl]-3-(3-isopropoxy-pyridin-2-ylmethyl)-4-methoxy-1,3-dihydro-benzoimidazol-2-one], the IC50 was found to be 9 nM.

For the compound `COc1cccc2c1n(Cc1csc(C(F)(F)F)n1)c(=O)n2[C@@H]1CCN(c2c(C)cccc2F)C1` [Example 218, 1-[(R)-1-(2-Fluoro-6-methyl-phenyl)-pyrrolidin-3-yl]-4-methoxy-3-(2-trifluoromethyl-thiazol-4-ylmethyl)-1,3-dihydro-benzoimidazol-2-one], the 50% inhibitory concentration (IC50) turned out to be 346 nM.
